Laboratory results as given in PMC2712759, “Hsp70 Chaperones and Type I PRMTs Are Sequestered at Intranuclear Inclusions Caused by Polyalanine Expansions in PABPN1” (PLoS ONE, 2009).

Tests used:
PABPN1 [1] = target: T1, PABPN1 (Homo sapiens, UniProt Q86U42, INS11AAAAAAA); test: ANS fluorescence titration; type: binding
T1 construct: recombinant full-length (306 aa for normal PABPN1, 10-Ala tract, N-terminus M-(A)10-GAAGGRG); details in supplement S1
T1 sequence (Q86U42 with tags, fused parts or gaps INS11AAAAAAA): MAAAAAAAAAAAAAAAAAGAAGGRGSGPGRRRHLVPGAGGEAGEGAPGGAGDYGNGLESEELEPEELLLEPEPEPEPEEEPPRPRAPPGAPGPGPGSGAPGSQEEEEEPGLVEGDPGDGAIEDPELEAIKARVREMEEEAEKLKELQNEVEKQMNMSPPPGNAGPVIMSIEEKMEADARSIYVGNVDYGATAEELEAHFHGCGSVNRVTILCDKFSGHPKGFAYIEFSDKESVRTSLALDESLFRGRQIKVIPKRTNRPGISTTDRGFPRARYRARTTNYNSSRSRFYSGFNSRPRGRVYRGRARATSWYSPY

PABPN1 [2] = target: T2, PABPN1 (Homo sapiens, UniProt Q86U42); test: ANS fluorescence titration; type: binding
T2 construct: recombinant full-length (306 aa for normal PABPN1, 10-Ala tract, N-terminus M-(A)10-GAAGGRG); details in supplement S1
T2 sequence (Q86U42 1-306): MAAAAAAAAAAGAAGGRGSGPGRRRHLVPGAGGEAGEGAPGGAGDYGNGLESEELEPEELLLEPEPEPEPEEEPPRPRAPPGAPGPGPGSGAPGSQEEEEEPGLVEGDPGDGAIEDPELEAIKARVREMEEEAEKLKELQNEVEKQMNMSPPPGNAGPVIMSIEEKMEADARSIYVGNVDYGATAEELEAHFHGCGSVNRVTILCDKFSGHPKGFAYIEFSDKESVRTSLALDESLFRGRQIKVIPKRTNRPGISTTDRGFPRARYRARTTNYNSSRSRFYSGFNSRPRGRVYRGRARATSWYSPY

O=S(=O)(O)c1cccc2cccc(Nc3ccccc3)c12 [1-Anilino naphthalene-8-sulfonic acid] gave a Kd (PABPN1 [1]) of 42 µM and a Kd (PABPN1 [2]) of 75 µM.
